Test results taken from patent publication US4753952A, “2-acyl-3-aminomethyl-1,2,3,4-tetrahydroquinolines” (Dr. Lo. Zambeletti S.p.A., priority 1985, dated 1988).
Where a name gives a salt, the structure may show the parent alone. Read-outs that look alike come from different tables or passages of the source.

Tests used:
μ receptor = target: T1, μ receptor (Cavia porcellus, UniProt A0ACM8Q262); test: Radio receptor binding to μ sites (3H-DAGO); conditions: guinea pig brain homogenate without cerebellum, 25° C., 40 min, pH 7.4
T1 construct: 3H-DAGO (DAMGO) displacement
T1 sequence (A0ACM8Q262 1-400): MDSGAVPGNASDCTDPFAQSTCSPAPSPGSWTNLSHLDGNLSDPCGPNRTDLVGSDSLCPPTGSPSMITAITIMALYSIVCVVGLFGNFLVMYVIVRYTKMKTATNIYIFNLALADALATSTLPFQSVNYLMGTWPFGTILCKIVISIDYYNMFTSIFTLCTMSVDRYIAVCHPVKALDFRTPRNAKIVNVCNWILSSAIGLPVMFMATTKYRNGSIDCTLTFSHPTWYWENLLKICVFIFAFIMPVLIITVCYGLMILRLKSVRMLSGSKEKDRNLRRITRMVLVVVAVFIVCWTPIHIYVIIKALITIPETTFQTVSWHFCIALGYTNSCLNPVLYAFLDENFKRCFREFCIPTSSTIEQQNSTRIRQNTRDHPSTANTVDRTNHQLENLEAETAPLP
Procedure: Radio receptor binding to μ and k sites is performed on fresh guinea pig brain homogenate prepared according to Kosterlitz. (1981)
(§1) […] brain without cerebellum is homogenized in 50 mM, Tris-buffer (pH 7.4 at 0° C.) and centrifuged at 49,000×g×10 min. The pellet is then resuspended in the same buffer, incubated at 37° C. for 45 min. and centrifuged again.
(§2) 1.9 ml of the final homogenate (1:100 in Tris-pH 7.4, 0° C.) is used for the binding assay.
Binding to μ sites (Magnan J., 1982):
^3 H [D-Ala^2, MePhe^4, Gly-ol^5 ] Enkephalin (^3 H-DAGO), an enkephalin analogue that binds selectively to μ receptor, is added to the biological substrate and incubated at 25° C. for 40 min., filtered through Whatman GF-C and washed with ice-cold Tris-buffer. The filters are then dried, solubilized in Filtercount and the radioactivity monitored. Non specific binding is determined in the presence of 10^-6 M Naloxone.
For the calculation of the kinetic parameters of the binding of labelled and unlabelled ligands, the equilibrium dissociation constant (KD), and the inhibition constant (Ki) and the maximum number of binding sites (B max) are determined from saturation curves and competition experiments (Hill 1910; Scatchard 1949; Cheng and Prusoff 1973; Gillan et al. 1980).
(§3) A concentration of radioligant near KD is used in the binding assays evaluating our compounds.

[1] = tested on: Mouse p-phenylquinone writhing; test: Mouse p-phenylquinone writhing test; format: in vivo, mouse (male Charles River); conditions: p-phenylquinone 0.02% i.p. 20 min after dosing, animals completely protected in 8 min; for ED50: Mus musculus, sc, read-out: IN VIVO TESTS - ED50, Mouse p-phenylquinone writhing; for IN VIVO TESTS - ED50, Mouse p-phenylquinone writhing: s.c.
Procedure: (§4) Inhibition of contraction in electrically stimulated rabbit vas deferens indicate Kappa receptor agonism.
Writhing test (According to Siegmund et al., Proc. Soc. Exptl. Biol. 95, 729/1957)
Male Charles River mice, average weight 26 g, are randomly distributed into groups of 10 and are dosed subcutaneously with compounds under test, dissolved in isotonic saline (20 ml.Kg^-1). The experiments are carried out in the presence of positive and negative controls. 20 min after the mice are injected intraperitoneally with p-phenylquinone 0.02%, 10 ml.Kg^-1, maintained at 37° C. in a water bath. The mice are placed in a perspex compartmented observation box and observed for a period of 8 min after injection of p-phenylquinone. The dose-response curve is obtained by basing observation on the all or none response.

Mouse tail flick = Mouse tail flick test; format: in vivo, mouse (male Charles River); conditions: s.c., 30 min after dosing, mice doubling the initial reaction time; for ED50: Mus musculus, sc, 0.5 h, read-out: IN VIVO TESTS - ED50, Mouse tail flick
Procedure: as §4
Tail-flick test (Modified from the procedure published by D'Amour et al., J. Pharm. Exptl. Ther. 72, 74/1941)
Male Charles River mice, average weight 26 g, are used. Selection is carried out before beginning of experiments: only mice whose reaction time is less than 8 sec are used. They are randomly distributed into groups of 10 and dosed with compounds under test, with positive and negative controls being included.
Compounds under test are administered subcutaneously in isotonic saline in a volume of 20 ml.Kg^-1. 30 min later mice are placed again under heat source (Socrel apparatus) and reaction time is recorded.
Analgesic activity of the test compound is expressed as the percent number of mice doubling the initial time within a group. [formula]

[2] = target: T2, k (Kappa) opioid receptor (Cavia porcellus, UniProt P41144); test: Radio receptor binding to k sites (tritiated Ethylketocyclazocine); parameters: species or system guinea pig
T2 construct: fresh guinea pig brain homogenate; from tissue; host or cells: guinea pig whole brain without cerebellum, washed membrane homogenate
T2 sequence (P41144 whole entry): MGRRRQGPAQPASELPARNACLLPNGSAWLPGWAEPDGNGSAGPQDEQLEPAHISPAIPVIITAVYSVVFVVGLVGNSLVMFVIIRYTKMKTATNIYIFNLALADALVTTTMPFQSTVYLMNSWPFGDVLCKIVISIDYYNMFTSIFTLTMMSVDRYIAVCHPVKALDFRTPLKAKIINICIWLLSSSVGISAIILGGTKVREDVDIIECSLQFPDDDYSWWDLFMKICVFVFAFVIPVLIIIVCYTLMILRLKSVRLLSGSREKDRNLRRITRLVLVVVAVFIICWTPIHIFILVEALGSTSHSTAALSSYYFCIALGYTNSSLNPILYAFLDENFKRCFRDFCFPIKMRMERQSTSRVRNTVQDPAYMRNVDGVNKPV
Procedure: Radio receptor binding to μ and k sites is performed on fresh guinea pig brain homogenate prepared according to Kosterlitz.
as §1, §2
The binding of tritiated Ethylketocyclazocine to brain homogenate is measured in the presence of 100 nanomolar D-Ala-D-LeuEnkephalin (DADLE) and 100 nanomolar DAGO, added to saturate the δ and μ opioid receptors respectively.
Final homogenate with solutions of the cold ligand and of the labelled ligand is incubated for 40 min at 25° C., filtered through Whatman GF/C glass filter discs and washed.
The radioactivity bound to the filters is counted by liquid scintillation spectrophotometry.
as §3

Structure (SMILES)	Ki (μ receptor)	ED50 [1]	ED50 (Mouse tail flick)	Ki [2]	IN VIVO TESTS - ED50, Mouse p-phenylquinone writhing [1]	IN VIVO TESTS - ED50, Mouse tail flick (Mouse tail flick)	Ki ([2]; guinea pig brain homogenate without cerebellum, tritiated Ethylketocyclazocine with 100 nM DADLE and 100 nM DAGO, 25° C., 40 min, read-out: RECEPTOR BINDING - Ki, k)
CN(C)CC1Cc2ccccc2CN1C(=O)Cc1ccc(Cl)c(Cl)c1 (racemic) [Example 4, (R,S)-2-(3,4-dichlorophenylacetyl)-3-dimethylaminomethyl-1,2,3,4-tetrahydroisoquinoline hydrochloride]	1360 nM	3.76 mg/kg	7.2 mg/kg	17.5 nM	–	–	–
CN(C)C[C@@H]1Cc2ccccc2CN1C(=O)Cc1ccc(Cl)c(Cl)c1 [Example 6, (S)-2-(3,4-dichlorophenylacetyl)-3-dimethylaminomethyl-1,2,3,4-tetrahydroisoquinoline hydrochloride]	1080 nM	2.05 mg/kg	1.65 mg/kg	11 nM	–	–	–
O=C(Cc1ccc(Cl)c(Cl)c1)N1Cc2ccccc2CC1CN1CCCC1 (racemic) [Example 1, (R,S)-2-(3,4-dichlorophenyl)acetyl-3-(1-pyrrolidinyl)methyl-1,2,3,4-tetrahydroisoquinoline hydrochloride]	960 nM	2.64 mg/kg	3.12 mg/kg	9.45 nM	–	–	–
O=C(Cc1ccc(Cl)c(Cl)c1)N1Cc2ccccc2C[C@H]1CN1CCCC1 [Example 3, (S)-2-(3,4-dichlorophenyl)acetyl-3-(1-pyrrolidinyl)methyl-1,2,3,4-tetrahydroisoquinoline hydrochloride]	764 nM	1.43 mg/kg	1.58 mg/kg	8.03 nM	–	–	–
CN(C)C[C@H]1Cc2ccccc2CN1C(=O)Cc1ccc(Cl)c(Cl)c1 [Example 5, (R)-2-(3,4-dichlorophenyl)acetyl-3-dimethylaminomethyl-1,2,3,4-tetrahydroisoquinoline hydrochloride]	2560 nM	–	–	–	N.E.	N.E.	637 nM
O=C(Cc1ccc(Cl)c(Cl)c1)N1Cc2ccccc2C[C@@H]1CN1CCCC1 [Example 2, (R)-2-(3,4-dichlorophenyl)acetyl-3-(1-pyrrolidinyl)methyl-1-2,3,4-tetrahydroisoquinoline hydrochloride]	1420 nM	–	–	> 1 nM	N.E.	N.E.	–
